What all share (assay): Test B postemergence
What all share (type): in vivo
Holding throughout (details): 13 to 15 days

Assay [1] concerns giant foxtail (Setaria faberii). The gist of the method:
(§1)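 Ratings on a 0 to 100 visual scale (100 complete control) compare treated plants with controls 13 to 15 days after application. Treatments were pre- or postemergence sprays of compound in non-phytotoxic solvent with surfactant.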

The subject of assay [2] is wheat (Triticum aestivum). The gist of the method: as §1
Assay [3] concerns cocklebur (Xanthium strumarium). The gist of the method: as §1
The subject of assay [4] is corn (Zea mays). The gist of the method:
as §1

For assay [5], the system named is pigweed (Amaranthus retroflexus). A digest of the protocol: as §1
In assay [6] the test system is velvetleaf (Abutilon theophrasti). The gist of the method:
as §1

Assay [7] deals with wild oat (Avena fatua). A digest of the protocol: as §1
Assay [8] has as its system crabgrass (Digitaria sanguinalis). The gist of the method: as §1
Assay [9] concerns Surinam grass (Brachiaria decumbens). A digest of the protocol:
as §1

Assay [10] relates to morning glory (Ipomoea hederacea). The gist of the method:
as §1

Assay [11] relates to barnyardgrass (Echinochloa crus-galli). The gist of the method: as §1
Where [12] appears, read: Rate 125 g/ha, scale 0 (no effect) to 100 (complete control).
The mark [13] stands for this setting: Rate 500 g/ha, scale 0 to 100, 0 is no effect, 100 is complete control.
[14] abbreviates: Rate 250 g/ha, scale 0 (no effect) to 100 (complete control).

Turning to `CC(C)(C)c1ccn(C2SCN(c3cccc(C(F)(F)F)c3)C2=O)n1` (stereo not shown) [Compound 1], the “Plant response rating, Foxtail, Giant” value came out at 30 in assay [1] (setting [12]) and 60 in assay [1] (setting [13]). In addition, the “Plant response rating, Wheat” value in assay [2] (setting [12]) is given as 0; in [2] (setting [13]) it was 30. In addition, the “Plant response rating, Cocklebur” value turned out to be 60 in [3] (setting [12]) and 80 in assay [3] (setting [13]). The “Plant response rating, Corn” value is 0 in assay [4] (setting [12]) and 60 in assay [4] (setting [13]). For the same compound, the entries for the “Plant response rating, Pigweed” value in assay [5] (setting [12]) and in [5] (setting [13]) were 90 and 100, respectively. Moreover, the “Plant response rating, Velvetleaf” value in assay [6] (setting [12]) is given as 50; in assay [6] (setting [13]), 60. Besides, the “Plant response rating, Wild Oat” value in assay [7] (setting [12]) and in assay [7] (setting [13]) was 0 in each case. The entries for the “Plant response rating, Crabgrass” value in [8] (setting [12]) and in [8] (setting [13]) were 0 and 40, respectively. The “Plant response rating, Surinam grass” value in [9] (setting [12]) and in [9] (setting [13]) was 0 each time. Moreover, the “Plant response rating, Morningglory” value in assay [10] (setting [12]) is given as 50; in assay [10] (setting [13]), 100. Moreover, the “Plant response rating, Barnyardgrass” value in assay [11] (setting [12]) is recorded as 0; in assay [11] (setting [13]), 50.

In the case of `CC1(C)CCc2cn(C3CCN(c4cccc(C(F)(F)F)c4)C3=O)nc21` (stereo not shown) [Compound 10], the “Plant response rating, Foxtail, Giant” value in [1] (setting [12]), in assay [1] (setting [14]) and in [1] (setting [13]) was 0 each time. Moreover, the “Plant response rating, Wheat” value in [2] (setting [12]), in [2] (setting [14]) and in assay [2] (setting [13]) was 0 in each case. For the same compound, the “Plant response rating, Cocklebur” value in assay [3] (setting [12]), in [3] (setting [14]) and in assay [3] (setting [13]) was 0 in each case. In addition, the “Plant response rating, Corn” value in assay [4] (setting [12]), in assay [4] (setting [14]) and in assay [4] (setting [13]) was 0 throughout. Also, the “Plant response rating, Pigweed” value in assay [5] (setting [12]), in [5] (setting [14]) and in [5] (setting [13]) was 0 throughout. Further, the “Plant response rating, Velvetleaf” value in assay [6] (setting [12]), in [6] (setting [14]) and in assay [6] (setting [13]) was 0 in each case. Further, the “Plant response rating, Wild Oat” value in [7] (setting [12]), in [7] (setting [14]) and in assay [7] (setting [13]) was 0 throughout. Further, the “Plant response rating, Crabgrass” value in [8] (setting [12]), in [8] (setting [14]) and in assay [8] (setting [13]) was 0 throughout. The “Plant response rating, Surinam grass” value in [9] (setting [12]), in assay [9] (setting [14]) and in assay [9] (setting [13]) was 0 throughout. Also, the “Plant response rating, Morningglory” value in assay [10] (setting [12]), in assay [10] (setting [14]) and in [10] (setting [13]) was 0 in each case. Further, the “Plant response rating, Barnyardgrass” value in assay [11] (setting [12]), in assay [11] (setting [14]) and in assay [11] (setting [13]) was 0 in each case.

In the case of `CC1CCc2cn(C3CCN(c4cccc(C(F)(F)F)c4)C3=O)nc21` (stereo not shown) [Compound 11], the “Plant response rating, Foxtail, Giant” value in assay [1] (setting [12]) and in assay [1] (setting [13]) was 0 in each case. For the same compound, the “Plant response rating, Wheat” value in assay [2] (setting [12]) and in [2] (setting [13]) was 0 throughout. The “Plant response rating, Cocklebur” value in [3] (setting [12]) and in assay [3] (setting [13]) was 0 each time. In addition, the “Plant response rating, Corn” value in assay [4] (setting [12]) and in assay [4] (setting [13]) was 0 throughout. The “Plant response rating, Pigweed” value in assay [5] (setting [12]) and in assay [5] (setting [13]) was 0 in each case. The “Plant response rating, Velvetleaf” value in assay [6] (setting [12]) and in [6] (setting [13]) was 0 throughout. In addition, the “Plant response rating, Wild Oat” value in assay [7] (setting [12]) and in assay [7] (setting [13]) was 0 throughout. For the same compound, the “Plant response rating, Crabgrass” value in [8] (setting [12]) and in [8] (setting [13]) was 0 throughout. Further, the “Plant response rating, Surinam grass” value in [9] (setting [12]) and in assay [9] (setting [13]) was 0 each time. The “Plant response rating, Morningglory” value in [10] (setting [12]) and in [10] (setting [13]) was 0 throughout. Besides, the “Plant response rating, Barnyardgrass” value in [11] (setting [12]) and in assay [11] (setting [13]) was 0 each time.

Turning to `CCC(C)c1nn(C2CCN(c3cccc(C(F)(F)F)c3)C2=O)cc1Cl` (stereo not shown) [Compound 13], the “Plant response rating, Foxtail, Giant” value in [1] (setting [12]) and in [1] (setting [13]) was 0 throughout. In addition, the “Plant response rating, Wheat” value in assay [2] (setting [12]) and in [2] (setting [13]) was 0 throughout. Further, the “Plant response rating, Cocklebur” value in assay [3] (setting [12]) and in assay [3] (setting [13]) was 0 throughout. In addition, the “Plant response rating, Corn” value in [4] (setting [12]) and in assay [4] (setting [13]) was 0 each time. Further, the “Plant response rating, Velvetleaf” value in [6] (setting [12]) and in [6] (setting [13]) was 0 in each case. For the same compound, the “Plant response rating, Wild Oat” value in assay [7] (setting [12]) and in assay [7] (setting [13]) was 20 throughout. Further, the “Plant response rating, Crabgrass” value in assay [8] (setting [12]) and in [8] (setting [13]) was 60 in each case. Further, the “Plant response rating, Surinam grass” value in assay [9] (setting [12]) and in [9] (setting [13]) was 0 in each case. Further, the “Plant response rating, Morningglory” value came to 0 in assay [10] (setting [12]) and 70 in assay [10] (setting [13]). Further, the “Plant response rating, Barnyardgrass” value in assay [11] (setting [12]) and in assay [11] (setting [13]) was 0 throughout.

Take `CC(C)(C)c1nn(C2CCN(c3cccc(C(F)(F)F)c3)C2=O)cc1Cl` (stereo not shown) [Compound 14]: the “Plant response rating, Foxtail, Giant” value worked out at 20 in assay [1] (setting [12]) and 30 in assay [1] (setting [13]). Besides, the “Plant response rating, Wheat” value in assay [2] (setting [12]) and in [2] (setting [13]) was 0 each time. Moreover, the “Plant response rating, Cocklebur” value in [3] (setting [12]) and in [3] (setting [13]) was 0 in each case. In addition, the “Plant response rating, Corn” value in assay [4] (setting [12]) and in assay [4] (setting [13]) was 0 throughout. Also, the “Plant response rating, Velvetleaf” value in assay [6] (setting [12]) and in [6] (setting [13]) was 0 each time. Besides, the “Plant response rating, Wild Oat” value in assay [7] (setting [12]) and in assay [7] (setting [13]) was 0 each time. Moreover, the “Plant response rating, Crabgrass” value in assay [8] (setting [12]) is given as 50; in [8] (setting [13]), 70. The “Plant response rating, Surinam grass” value in assay [9] (setting [12]) and in [9] (setting [13]) was 0 throughout. In addition, the entries for the “Plant response rating, Morningglory” value in assay [10] (setting [12]) and in assay [10] (setting [13]) were 30 and 80, respectively. The “Plant response rating, Barnyardgrass” value in [11] (setting [12]) and in assay [11] (setting [13]) was 0 throughout.

In the case of `O=C1C(n2cccn2)CCN1c1cccc(C(F)(F)F)c1` (stereo not shown) [Compound 15], the “Plant response rating, Foxtail, Giant” value in assay [1] (setting [12]) was 0; in assay [1] (setting [13]), 30. In addition, the “Plant response rating, Wheat” value in assay [2] (setting [12]) and in assay [2] (setting [13]) was 0 each time. Moreover, the “Plant response rating, Cocklebur” value in [3] (setting [12]) and in assay [3] (setting [13]) was 0 each time. The “Plant response rating, Corn” value in [4] (setting [12]) and in [4] (setting [13]) was 0 each time. Further, the “Plant response rating, Velvetleaf” value in assay [6] (setting [12]) and in [6] (setting [13]) was 0 in each case. For the same compound, the “Plant response rating, Wild Oat” value in assay [7] (setting [12]) was 0; in [7] (setting [13]) it was 50. Besides, the “Plant response rating, Crabgrass” value in [8] (setting [12]) is listed as 20; in assay [8] (setting [13]) it was 50. Also, the “Plant response rating, Surinam grass” value in [9] (setting [12]) and in [9] (setting [13]) was 0 each time. Also, the “Plant response rating, Morningglory” value in assay [10] (setting [12]) and in assay [10] (setting [13]) was 0 each time. Further, the “Plant response rating, Barnyardgrass” value in assay [11] (setting [12]) and in assay [11] (setting [13]) was 0 in each case.

In the case of `Cc1ccn(C2CCN(c3cccc(C(F)(F)F)c3)C2=O)n1` (stereo not shown) [Compound 16], the “Plant response rating, Foxtail, Giant” value in [1] (setting [12]) stood at 0; in [1] (setting [13]) it was 30. The “Plant response rating, Wheat” value in [2] (setting [12]) and in assay [2] (setting [13]) was 0 each time. Moreover, the “Plant response rating, Cocklebur” value in [3] (setting [12]) and in assay [3] (setting [13]) was 0 in each case. Also, the “Plant response rating, Corn” value in assay [4] (setting [12]) and in assay [4] (setting [13]) was 0 throughout. Further, the “Plant response rating, Velvetleaf” value in assay [6] (setting [12]) and in assay [6] (setting [13]) was 0 throughout. Further, the results for the “Plant response rating, Wild Oat” value in assay [7] (setting [12]) and in assay [7] (setting [13]) were 0 and 50, respectively. For the same compound, the “Plant response rating, Crabgrass” value in assay [8] (setting [12]) is listed as 0; in assay [8] (setting [13]), 60. Moreover, the “Plant response rating, Surinam grass” value in [9] (setting [12]) and in assay [9] (setting [13]) was 0 in each case. The “Plant response rating, Morningglory” value in assay [10] (setting [12]) and in assay [10] (setting [13]) was 0 throughout. The “Plant response rating, Barnyardgrass” value in [11] (setting [12]) and in assay [11] (setting [13]) was 0 each time.

Values taken from patent US7138361B2, “Herbicidal heterocycles” (E. I. du Pont de Nemours and Company, priority 2000, dated 2006).
